According to ChEMBL document CHEMBL1201862, “PubChem BioAssay data set” (2004):
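Briefly, cells in 96-well plates were exposed to five compound concentrations for 48 h, and endpoints were estimated by linear interpolation. Abbreviation: GI50, concentration required for 50% inhibition of growth.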 The source made the active and inactive calls. No stated cut-off is given here; in the data, active = GI50 up to about 1.1 µM and inactive = higher.

Assays:
Assay in all cases: inhibition of tumour cell growth, NCI panel, 48 h
BT-549 = system: BT-549
NCI-H23 = system: NCI-H23
K562 = system: K562
SW-620 = system: SW-620
786-0 = system: 786-0
OVCAR-3 = system: OVCAR-3
UACC-62 = system: UACC-62
U-251 = system: U-251
T47D = system: T47D
SK-MEL-28 = system: SK-MEL-28
SK-MEL-2 = system: SK-MEL-2
SF-539 = system: SF-539
MOLT-4 = system: MOLT-4
EKVX = system: EKVX
M14 = system: M14
KM12 = system: KM12
HCC 2998 = system: HCC 2998
SF-295 = system: SF-295
HOP-92 = system: HOP-92
OVCAR-4 = system: OVCAR-4

Measured: GI50

OC(COC(c1ccccc1)(c1ccccc1)c1ccccc1)C(O)CC1SCCS1 (stereo unspecified)
inactive: BT-549 20 µM | NCI-H23 17.9 µM | K562 13.5 µM | SW-620 29 µM | 786-0 17.6 µM | OVCAR-3 22.2 µM | UACC-62 17.1 µM | U-251 21.8 µM | T47D 14.1 µM | SK-MEL-28 21.5 µM | SK-MEL-2 11.5 µM | SF-539 18.7 µM | MOLT-4 8.91 µM | EKVX 11.2 µM | M14 29.6 µM | KM12 13 µM

Cc1cn([C@@H]2C[C@H](CO)[C@@H]2O)c(=O)[nH]c1=O
inactive: HCC 2998 > 100 µM | BT-549 > 100 µM | SF-295 > 100 µM | NCI-H23 > 100 µM | HOP-92 > 100 µM | K562 > 100 µM | SW-620 > 100 µM | 786-0 > 100 µM | OVCAR-3 > 100 µM | OVCAR-4 > 100 µM | U-251 > 100 µM | SK-MEL-28 > 100 µM | SK-MEL-2 > 100 µM | SF-539 > 100 µM | MOLT-4 > 100 µM | EKVX > 100 µM | KM12 > 100 µM

CCOC(=O)CC(=O)Nc1c(C(=O)OCC)sc2nc(SC)nc(Nc3ccc(OC)c(OC)c3)c12
inactive: HCC 2998 > 100 µM | BT-549 27.5 µM | SF-295 7.59 µM | NCI-H23 19.1 µM | HOP-92 9.25 µM | SW-620 > 100 µM | 786-0 6.22 µM | OVCAR-3 10.7 µM | OVCAR-4 66.2 µM | UACC-62 24.6 µM | U-251 6.4 µM | SK-MEL-28 > 100 µM | SK-MEL-2 25.6 µM | SF-539 9.86 µM | EKVX > 100 µM | M14 > 100 µM | KM12 80.5 µM

CC(=O)OCC1=C2C(OC(=O)C(C)C)CC3(COC(C)=O)OC3/C=C\C3(C)OC3C2OC1=O (stereo unspecified)
inactive: HCC 2998 > 100 µM | BT-549 > 100 µM | SF-295 > 100 µM | NCI-H23 > 100 µM | K562 > 100 µM | SW-620 > 100 µM | 786-0 > 100 µM | OVCAR-3 > 100 µM | OVCAR-4 > 100 µM | UACC-62 > 100 µM | U-251 > 100 µM | T47D > 100 µM | SK-MEL-28 > 100 µM | SK-MEL-2 > 100 µM | SF-539 > 100 µM | MOLT-4 > 100 µM | EKVX > 100 µM | M14 > 100 µM | KM12 > 100 µM

CCOC(=O)c1cc2c([nH]1)C(=O)CC1=C2CCN1Cc1ccccc1
inactive: BT-549 18.1 µM | SF-295 18.5 µM | NCI-H23 16.1 µM | HOP-92 14.3 µM | K562 3.8 µM | SW-620 5.36 µM | 786-0 17.2 µM | OVCAR-4 13.6 µM | UACC-62 14.8 µM | U-251 12.5 µM | T47D 2.45 µM | SK-MEL-28 17.2 µM | SK-MEL-2 20.5 µM | SF-539 22.1 µM | MOLT-4 4.06 µM | EKVX 19.8 µM | KM12 17.6 µM

CC(=O)Nc1ccccc1C=C1c2ccccc2-c2ccccc21
inactive: HCC 2998 84.9 µM | BT-549 24.8 µM | SF-295 20.9 µM | NCI-H23 25.2 µM | K562 51.9 µM | SW-620 > 100 µM | 786-0 19.9 µM | OVCAR-3 25.1 µM | OVCAR-4 27.9 µM | UACC-62 41.7 µM | U-251 23.2 µM | T47D 30.4 µM | SK-MEL-28 > 100 µM | SK-MEL-2 34 µM | SF-539 13.2 µM | MOLT-4 77.1 µM | EKVX 38.8 µM | M14 36.7 µM | KM12 > 100 µM

O=c1[nH][nH]c(=O)n1CCCCCCn1c(=O)[nH][nH]c1=O
inactive: HCC 2998 > 100 µM | BT-549 > 100 µM | NCI-H23 > 100 µM | K562 > 100 µM | SW-620 > 100 µM | 786-0 > 100 µM | OVCAR-3 > 100 µM | OVCAR-4 > 100 µM | UACC-62 > 100 µM | U-251 > 100 µM | T47D > 100 µM | SK-MEL-28 > 100 µM | SK-MEL-2 > 100 µM | SF-539 > 100 µM | MOLT-4 > 100 µM | EKVX > 100 µM | M14 > 100 µM | KM12 > 100 µM

CCOC(=O)C1(C#N)CC1
inactive: HCC 2998 > 100 µM | BT-549 > 100 µM | SF-295 > 100 µM | NCI-H23 > 100 µM | K562 > 100 µM | SW-620 > 100 µM | 786-0 > 100 µM | OVCAR-4 > 100 µM | UACC-62 > 100 µM | U-251 > 100 µM | T47D > 100 µM | SK-MEL-28 > 100 µM | SK-MEL-2 > 100 µM | SF-539 > 100 µM | MOLT-4 > 100 µM | EKVX > 100 µM | M14 > 100 µM | KM12 > 100 µM
